Source: patent US20240247080A1, “GLP1/GIP/NPY2 RECEPTOR TRIPLE AGONISTS” (Boehringer Ingelheim International GmbH, priority 2022, published 2024)
Where two headings read alike, the source gives them in different places. Non-standard residues stand in square brackets, D forms with d. Residues, ends and D or L forms follow the SMILES beside them. Groups on a side chain read outwards from the residue. ξ: configuration not given here. *: point of attachment. C18 diacid = O=C(O)CCCCCCCCCCCCCCCCC(=O)*; NMeY = CN[C@@H](Cc1ccc(O)cc1)C(=O)O; Palmitoyl = CCCCCCCCCCCCCCCC(=O)*; αMeF = C[C@](N)(Cc1ccccc1)C(=O)O; ξIva = CCC(C)(N)C(=O)O; Aib = CC(C)(N)C(=O)O

How the values were obtained:
[1] = Mouse PK after intravenous application; type: in vivo; details: mean residence time, intravenous 30-60 nmol/kg, male NMRI mice
Method in brief: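 Male NMRI mice (30–40 g) received 30-60 nmol/kg peptide by tail-vein injection, dissolved in 50 mM phosphate buffer (pH 7.4)/3.5% mannitol. Saphenous blood was sampled up to 56 hours post-dose and EDTA plasma analysed by LC-MS. PK parameters came from non-compartmental analysis.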

[2] = Solubility in 0.1 M phosphate buffer at pH 7; type: physicochemical
Procedure: Peptides (as TFA-salts) were weighed out in a filter unit (Mini-UniPrep Syringieless Filter 0.45 prn. Whatman PVDF), and 0.1 M phosphate buffer at pH 7 was added to achieve 10 mg/mL final peptide concentration. The peptides were dissolved by shaking the filter units horizontally at 600 rpm for 2 hours at room temperature. Samples were then filtered to remove any insoluble particles. Controls were prepared by weighing out the corresponding peptide solid material and dissolving it in an appropriate vehicle (e.g. ACN:H2O) to a final concentration of 1 mg/mL. Both, the control and sample were analyzed by reversed phase chromatography. The area under the peak of the sample was compared to the control and the solubility was calculated based on that ratio. The pH was measured and recorded for each sample.

Row | MRT ([1]; plasma) | solubility ([2]; phosphate buffer) | MRT ([1]; in vivo) | solubility [2] | SMILES
1 | 4.3 h | < 1000 µg/mL | – | – | CC[C@H](C)[C@H](NC(=O)[C@H](CO)NC(=O)[C@H](CCCCNC(=O)CNC(=O)CNC(=O)CNC(=O)CNC(=O)CCCCCCCCCCCCCCCCC(=O)O)NC(=O)[C@H](CC(=O)O)NC(=O)[C@H](CO)NC(=O)[C@@H](NC(=O)[C@](C)(Cc1ccccc1)NC(=O)[C@@H](NC(=O)CNC(=O)[C@H](CCC(=O)O)NC(=O)C(C)(C)NC(=O)[C@H](Cc1ccc(O)cc1)NC)[C@@H](C)O)[C@@H](C)O)C(=O)NC(C)(C)C(=O)N[C@@H](CC(C)C)C(=O)N[C@@H](CCC(=O)O)C(=O)N[C@@H](CCCCN)C(=O)N[C@@H](CCC(N)=O)C(=O)N[C@@H](CCCNC(=N)N)C(=O)N[C@@H](CCC(N)=O)C(=O)NC(C)(CC)C(=O)N[C@@H](CCC(=O)O)C(=O)N[C@@H](Cc1ccccc1)C(=O)N[C@H](C(=O)N[C@@H](CCCNC(=N)N)C(=O)N[C@@H](Cc1c[nH]cn1)C(=O)N[C@@H](CC(C)C)C(=O)N[C@@H](CC(C)C)C(=O)N[C@@H](CC(N)=O)C(=O)N[C@@H](CCCCN)C(=O)NC(C)(C)C(=O)N[C@H](C(=O)N[C@@H](CCCNC(=N)N)C(=O)N[C@@H](CCC(N)=O)C(=O)N[C@@H](CCCNC(=N)N)C(=O)N[C@@H](Cc1ccc(O)cc1)C(N)=O)[C@@H](C)O)C(C)C (stereo partly drawn) [Ref. 2, NMeY-Aib-E-G-T-aMeF-T-S-D-K(1,3)-S-I-Aib-L-E-K-Q-R-Q-Iva-E-F-V-R-H-L-L-N-K-Aib-T-R-Q-R-Y-NH2.C18DA-G-G-G-G(1,2), reference compound] (H-[NMeY][Aib]EGT[αMeF]TSDK([Gly-Gly-Gly-Gly-C18 diacid])SI[Aib]LEKQRQ[ξIva]EFVRHLLNK[Aib]TRQRY-NH2)
2 | – | – | < 1 h | < 1000 µg/mL | CCCCCCCCCCCCCCCC(=O)NCC(=O)NCC(=O)NCC(=O)NCC(=O)NCCCC[C@H](NC(=O)[C@H](CC(=O)O)NC(=O)[C@H](CO)NC(=O)[C@@H](NC(=O)[C@](C)(Cc1ccccc1)NC(=O)[C@@H](NC(=O)CNC(=O)[C@H](CCC(=O)O)NC(=O)C(C)(C)NC(=O)[C@H](Cc1ccc(O)cc1)NC)[C@@H](C)O)[C@@H](C)O)C(=O)N[C@@H](CO)C(=O)N[C@H](C(=O)NC(C)(C)C(=O)N[C@@H](CC(C)C)C(=O)N[C@@H](CCC(=O)O)C(=O)N[C@@H](CCCCN)C(=O)N[C@@H](CCC(N)=O)C(=O)N[C@@H](CCCNC(=N)N)C(=O)N[C@@H](CCC(N)=O)C(=O)NC(C)(CC)C(=O)N[C@@H](CCC(=O)O)C(=O)N[C@@H](Cc1ccccc1)C(=O)N[C@H](C(=O)N[C@@H](CCCNC(=N)N)C(=O)N[C@@H](Cc1c[nH]cn1)C(=O)N[C@@H](CC(C)C)C(=O)N[C@@H](CC(C)C)C(=O)N[C@@H](CC(N)=O)C(=O)N[C@@H](CCCCN)C(=O)NC(C)(C)C(=O)N[C@H](C(=O)N[C@@H](CCCNC(=N)N)C(=O)N[C@@H](CCC(N)=O)C(=O)N[C@@H](CCCNC(=N)N)C(=O)N[C@@H](Cc1ccc(O)cc1)C(N)=O)[C@@H](C)O)C(C)C)[C@@H](C)CC (stereo partly drawn) [Ref. 1, NMeY-Aib-E-G-T-aMeF-T-S-D-K(1,3)-S-I-Aib-L-E-K-Q-R-Q-Iva-E-F-V-R-H-L-L-N-K-Aib-T-R-Q-R-Y-NH2.C16A-G-G-G-G(1,2), reference compound] (H-[NMeY][Aib]EGT[αMeF]TSDK([Gly-Gly-Gly-Gly-Palmitoyl])SI[Aib]LEKQRQ[ξIva]EFVRHLLNK[Aib]TRQRY-NH2)
